Measurements from patent US10988440B2, “FTO inhibitors” (National Institute of Biological Sciences, Beijing, priority 2015, dated 2021).
Read-outs that look alike come from different tables or passages of the source.

Key:
[1] = target: T1, COMT enzyme (Homo sapiens, UniProt P21964); assay: COMT inhibition assay (reaction kinetic model, esculetin fluorescence); format: biochemical; conditions: for inhibition at 0.05 µM: read-out: COMT inhibition at 50 nM; for inhibition at 0.2 µM: read-out: COMT inhibition at 200 nM
T1 construct: COMT (μM); other: at 200 nM; other: at 50 nM; The reaction system contains 1U COMT enzyme, test article, 4 μM Esculetin, 0.6 mM AdoMet, 50 mM K3PO4, and 10 mM MgCl2
T1 sequence (P21964 1-271): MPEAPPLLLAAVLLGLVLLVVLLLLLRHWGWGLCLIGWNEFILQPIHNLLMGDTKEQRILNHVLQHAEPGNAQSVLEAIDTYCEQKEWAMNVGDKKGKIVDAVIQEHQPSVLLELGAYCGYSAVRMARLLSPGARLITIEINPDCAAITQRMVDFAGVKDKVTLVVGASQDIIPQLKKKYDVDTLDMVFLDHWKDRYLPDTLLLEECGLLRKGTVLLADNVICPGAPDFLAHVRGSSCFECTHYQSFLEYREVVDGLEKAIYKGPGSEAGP

[2] = target: FTO (Homo sapiens, UniProt Q9C0B1); assay: demethylation reaction catalyzed by FTO (enzymatic inhibition, HPLC-MS/MS of N6-mA and A); format: biochemical
[3] = Rat liver microsome stability assay; format: in vitro ADME; conditions: liver microsomes, pH 7.4, rat liver microsome 1 mg/ml, test compound 2 μM, NADPH 1 mM, 37° C.; for microsomal CLint at 1 h, 2 µM: read-out: Rat Liver Microsome CLint (μL/min/mg protein); for half-life at 1 h, 2 µM: read-out: Rat Liver Microsome T½
[4] = system: COMT enzyme; assay: COMT inhibition assay (reaction kinetic model, esculetin fluorescence); format: biochemical; conditions: normalized COMT/FTO value: (COMTcompound/FTOcompound)/(COMTentacapone/FTOentacapone)
[5] = exemplary IC50 data of representative compounds, read-out: Enzymatic inhibition (IC50)
[6] = selectivity table, read-out: FTO

Sequence of FTO (Q9C0B1 whole entry): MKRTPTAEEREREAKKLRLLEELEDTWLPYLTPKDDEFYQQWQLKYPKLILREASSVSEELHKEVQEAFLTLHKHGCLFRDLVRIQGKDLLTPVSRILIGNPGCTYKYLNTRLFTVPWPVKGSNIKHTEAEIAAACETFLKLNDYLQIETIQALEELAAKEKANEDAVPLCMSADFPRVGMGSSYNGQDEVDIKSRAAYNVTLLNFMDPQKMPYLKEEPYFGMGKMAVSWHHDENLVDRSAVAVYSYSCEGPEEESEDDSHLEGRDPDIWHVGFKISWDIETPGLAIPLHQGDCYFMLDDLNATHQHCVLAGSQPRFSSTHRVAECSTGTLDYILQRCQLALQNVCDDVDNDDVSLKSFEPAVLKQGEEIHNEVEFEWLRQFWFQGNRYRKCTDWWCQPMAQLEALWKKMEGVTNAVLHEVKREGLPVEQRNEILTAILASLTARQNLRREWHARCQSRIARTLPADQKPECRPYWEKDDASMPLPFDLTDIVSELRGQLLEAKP

inhibition at 0.05 µM [1] | inhibition at 0.2 µM [1] | IC50 [2, 5] | IC50 [2, 6] | microsomal CLint at 1 h, 2 µM [3] | half-life at 1 h, 2 µM [3] | Selectivity Index* [4] | IC50 [1] | Compound
19% | 70% | ~1 µM | 1 µM | 310 µL/min/mg | 0.0373 h |  |  | N#CC(=Cc1cc(O)c(O)c([N+](=O)[O-])c1)c1ccccn1 (stereo in doubt) [Compound 315, (E)-3-(3,4-dihydroxy-5-nitrophenyl)-2-(pyridin-2-yl)acrylonitrile]
-3% | 33% | < 1 µM | 0.75 µM | 1.1 µL/min/mg | 10.5 h |  |  | N#C/C(=C(/O)c1cc(O)c(O)c([N+](=O)[O-])c1)c1cnc(C(=O)O)cn1 [Compound 697, (E)-5-(1-cyano-2-(3,4-dihydroxy-5-nitrophenyl)-2-hydroxyvinyl) pyrazine-2-carboxylic Acid]
 |  | < 1 µM | 0.75 µM |  |  | 237.33 | 3.56 µM | N#C/C(C(=O)N1CCC1)=C(/O)c1cc(O)c(O)c([N+](=O)[O-])c1 [Compound 701, (Z)-2-(azetidine-1-carbonyl)-3-(3,4-dihydroxy-5-nitrophenyl)-3-hydroxyacrylonitrile]
39% | 74% | < 1 µM | 0.5 µM | 10.9 µL/min/mg | 1.06 h |  |  | N#C/C(=C(/O)c1cc(O)c(O)c([N+](=O)[O-])c1)c1ccncn1 [Compound 525, (E)-3-(3,4-dihydroxy-5-nitrophenyl)-3-hydroxy-2-(pyrimidin-4-yl)acrylonitrile]
33% | 80% | < 1 µM | 0.75 µM | 9 µL/min/mg | 1.28 h |  |  | N#C/C(=C(/O)c1cc(O)c(O)c([N+](=O)[O-])c1)c1ccccn1 [Compound 351, 3-(3,4-dihydroxy-5-nitrophenyl)-3-oxo-2-(pyridin-2-yl)propanenitrile]
 |  |  |  | 17.7 µL/min/mg | 0.653 h |  |  | CCN(CC)C(=O)/C(C#N)=C/c1cc(O)c(O)c([N+](=O)[O-])c1 [Entacapone, entacapone, reference compound]
 |  | < 1 µM | 0.5 µM | 4.9 µL/min/mg | 2.35 h | 21.40 | 0.214 µM | CCN(CC)C(=O)/C(C#N)=C(\N)c1cc(O)c(O)c([N+](=O)[O-])c1 [Compound 347N]
12% | 36% | ~1 µM | 1 µM | 266 µL/min/mg | 0.0435 h |  |  | N#C/C(=C\c1cc(O)c(O)c([N+](=O)[O-])c1)c1nccs1 [Compound 390]
 |  | > 1 µM |  |  |  |  |  | N#C/C(C(=O)c1cscn1)=C(/N)c1cc(O)c(O)c([N+](=O)[O-])c1 [Compound 711N, ammonium (Z)-5-(1-amino-2-cyano-3-oxo-3-(thiazol-4-yl)prop-1-enyl)-2-hydroxy-3-nitrophenolate]
 |  | < 1 µM |  |  |  |  |  | N#C/C(C(=O)Nc1ncns1)=C(/O)c1cc(O)c(O)c([N+](=O)[O-])c1 [Compound 668, 2-cyano-3-(3,4-dihydroxy-5-nitrophenyl)-3-hydroxy-N-(1,2,4-thiadiazol-5-yl)acrylamide]
 |  | ~1 µM |  |  |  |  |  | N#C/C(=C\c1cc(O)c(O)c([N+](=O)[O-])c1)C(=O)Nc1cccc(Cl)c1 [Compound 365]
 |  | < 1 µM |  |  |  |  |  | CCNC(=O)/C(C#N)=C(\O)c1cc(O)c(O)c([N+](=O)[O-])c1 [Compound 691, (Z)-2-cyano-3-(3,4-dihydroxy-5-nitrophenyl)-N-ethyl-3-hydroxyacrylamide]
 |  | ~1 µM |  |  |  |  |  | N#C/C(=C\c1cc(O)c(O)c([N+](=O)[O-])c1)C(=O)NO [Compound 664]
 |  | < 1 µM |  |  |  |  |  | N#C/C(=C\c1cc(O)c(O)c([N+](=O)[O-])c1)c1c[n+]([O-])ccn1 [Compound 520]
 |  | ~1 µM |  |  |  |  |  | N#C/C(=C\c1cc(O)c(O)c([N+](=O)[O-])c1)C(=O)N[C@@H](CO)C(=O)O [Compound 693, (S,E)-2-(2-cyano-3-(3,4-dihydroxy-5-nitrophenyl)acrylamido)-3-hydroxypropanoic Acid]
 |  | > 1 µM |  |  |  |  |  | CCNC(=O)/C(C#N)=C/c1cc(O)c(O)c([N+](=O)[O-])c1 [Compound 684]
 |  | > 1 µM |  |  |  |  |  | N#C/C(=C\c1cc(O)c(O)c([N+](=O)[O-])c1)C(=O)NCCO [Compound 688, (E)-2-cyano-3-(3,4-dihydroxy-5-nitrophenyl)-N-(2-hydroxyethyl)acrylamide]
 |  | ~1 µM |  |  |  |  |  | N#C/C(=C\c1cc(O)c(O)c([N+](=O)[O-])c1)c1ccncc1 [Compound 389]

inhibition at 0.05 µM [1] | inhibition at 0.2 µM [1] | IC50 [2, 5] | IC50 [2, 6] | microsomal CLint at 1 h, 2 µM [3] | half-life at 1 h, 2 µM [3] | Selectivity Index* [4] | IC50 [1] | Compound
12% | 26% | ~1 µM | 1 µM | 2.2 µL/min/mg | 5.25 h |  |  | N#C/C(C(=O)N1CCCCC1)=C(/O)c1cc(O)c(O)c([N+](=O)[O-])c1 [Compound 661, (Z)-3-(3,4-dihydroxy-5-nitrophenyl)-3-hydroxy-2-(piperidine-1-carbonyl)acrylonitrile]
 |  | > 1 µM |  |  |  |  |  | N#C/C(=C\c1cc(O)c(O)c([N+](=O)[O-])c1)C(=O)N1CCOCC1 [Compound 382]
 |  | ~1 µM |  |  |  |  |  | CCNC(=O)/C(C#N)=C(\N)c1cc(O)c(O)c([N+](=O)[O-])c1 [Compound 691N, (Z)-3-amino-2-cyano-3-(3,4-dihydroxy-5-nitrophenyl)-N-ethylacrylamide]
33% | 71% |  |  | 43 µL/min/mg | 0.268 h |  |  | N#C/C(=C\c1cc(O)c(O)c([N+](=O)[O-])c1)C(=O)N1CCCCC1 [Compound 371, (E)-3-(3,4-dihydroxy-5-nitrophenyl)-2-(piperidine-1-carbonyl)acrylonitrile]
 |  | ~1 µM |  |  |  |  |  | N#C/C(=C\c1cc(O)c(O)c([N+](=O)[O-])c1)C(=O)N1CCC[C@H]1C(=O)O [Compound 702, (S,E)-1-(2-cyano-3-(3,4-dihydroxy-5-nitrophenyl)acryloyl)pyrrolidine-2-carboxylic Acid]
 |  | > 1 µM |  |  |  |  |  | N#C/C(=C\c1cc(O)c(O)c([N+](=O)[O-])c1)C(=O)c1cscn1 [Compound 698]
 |  | < 1 µM | 1 µM | 284 µL/min/mg | 0.0407 h |  | 0.033 µM | N#C/C(=C\c1cc(O)c(O)c([N+](=O)[O-])c1)C(=O)N1CCC1 [Compound 687]
 |  |  |  | 0.1 µL/min/mg | 116 h |  | 0.551 µM | CCN(CC)C(=O)/C(C#N)=C(\O)c1cc(O)c(O)c([N+](=O)[O-])c1 [Compound 347, 2-cyano-3-(3,4-dihydroxy-5-nitrophenyl)-N,N-diethyl-3-oxopropanamide]
 |  | < 1 µM |  |  |  |  |  | N#C/C(C(=O)N1CCCOC1)=C(/O)c1cc(O)c(O)c([N+](=O)[O-])c1 [Compound 715]
25% | 54% | ~1 µM | 1 µM | 7.4 µL/min/mg | 1.56 h |  |  | N#C/C(=C\c1cc(O)c(O)c([N+](=O)[O-])c1)C(=O)Nc1nccs1 [Compound 331, (E)-2-cyano-3-(3,4-dihydroxy-5-nitrophenyl)-N-(thiazol-2-yl)acrylamide]
 |  | < 1 µM |  |  |  |  |  | N#C/C(=C\c1cc(O)c(O)c([N+](=O)[O-])c1)C(=O)NC1COC1 [Compound 713]
 |  | < 1 µM |  |  |  |  |  | N#C/C(=C\c1cc(O)c(O)c([N+](=O)[O-])c1)C(=O)NCC(=O)O [Compound 709, (E)-2-(2-cyano-3-(3,4-dihydroxy-5-nitrophenyl)acrylamido)acetic Acid]
36% | 74% | < 1 µM | 0.5 µM | 12.6 µL/min/mg | 0.917 h |  |  | N#C/C(=C\c1cc(O)c(O)c([N+](=O)[O-])c1)c1ccncn1 [Compound 395, 3-(3,4-dihydroxy-5-nitrophenyl)-2-(pyrimidin-4-yl)acrylonitrile]
 |  | > 1 µM |  |  |  |  |  | N#C/C(=C\c1cc(O)c(O)c([N+](=O)[O-])c1)C(=O)N1CCCC1 [Compound 317]
 |  | > 1 µM |  |  |  |  |  | N#C/C(C(=O)N1CCC1)=C(/N)c1cc(O)c(O)c([N+](=O)[O-])c1 [Compound 701N, (Z)-3-amino-2-(azetidine-1-carbonyl)-3-(3,4-dihydroxy-5-nitrophenyl)acrylonitrile]
35% | 64% | < 1 µM | 0.75 µM | 10.3 µL/min/mg | 1.12 h |  |  | N#C/C(C(=O)N1CCCCC1)=C(/N)c1cc(O)c(O)c([N+](=O)[O-])c1 [Compound 661N, 3-amino-3-(3,4-dihydroxy-5-nitrophenyl)-2-(piperidine-1-carbonyl)acrylonitrile]
9% | 24% | ~1 µM | 1.5 µM | 0.5 µL/min/mg | 23.1 h |  |  | N#C/C(=C(/O)c1cc(O)c(O)c([N+](=O)[O-])c1)c1nccs1 [Compound 503, 3-(3,4-dihydroxy-5-nitrophenyl)-3-oxo-2-(thiazol-2-yl)propanenitrile]
